Source: ChEMBL document CHEMBL3627633, “Synthesis of potent urease inhibitors based on disulfide scaffold and their molecular docking studies” (Bioorg Med Chem, 2015)
Active and inactive are the calls of the source. The rule behind the calls is not given here.

Assays:
Urease = Urease (Canavalia ensiformis, UniProt P07374); test: Inhibition of jack bean urease using urea as substrate assessed as ammonia production incubated for 15 mins by indophenol method
[1] = biological target: Carbonic anhydrase (Homo sapiens) (UniProt P00918+P43166+P00915+P07451+P23280+O43570+Q9ULX7+Q16790+P22748+Q8N1Q1+Q9Y2D0+P35218); test: Inhibition of carbonic anhydrase (unknown origin); assay type: protein assay
[2] = biological target: Cholinesterase (Equus caballus) (UniProt P81908); test: Inhibition of equine serum butyrylcholinesterase using […] as substrate preincubated for 15 mins followed by substrate addition measured every 1 min by Ellman's method
Serpentes = test: Inhibition of snake venom NPP1 using bis(p-nitrophenyl)phosphate as substrate assessed as p-nitrophenol release preincubated for 30 mins by spectrophotometry
[3] = Cytotoxicity against mouse 3T3L1 cells assessed as cell viability at 1 to 20 ug/ml after 48 hrs by MTT assay; assay type: cell-based; conditions: 3t3-l1, 48 h
[4] = Cytotoxicity against Wistar rat CC1 cells assessed as cell viability at 1 to 20 ug/ml after 48 hrs by MTT assay; assay type: cell-based; conditions: cc-1, 48 h

Cholinesterase (Equus caballus), sequence (P81908 whole entry): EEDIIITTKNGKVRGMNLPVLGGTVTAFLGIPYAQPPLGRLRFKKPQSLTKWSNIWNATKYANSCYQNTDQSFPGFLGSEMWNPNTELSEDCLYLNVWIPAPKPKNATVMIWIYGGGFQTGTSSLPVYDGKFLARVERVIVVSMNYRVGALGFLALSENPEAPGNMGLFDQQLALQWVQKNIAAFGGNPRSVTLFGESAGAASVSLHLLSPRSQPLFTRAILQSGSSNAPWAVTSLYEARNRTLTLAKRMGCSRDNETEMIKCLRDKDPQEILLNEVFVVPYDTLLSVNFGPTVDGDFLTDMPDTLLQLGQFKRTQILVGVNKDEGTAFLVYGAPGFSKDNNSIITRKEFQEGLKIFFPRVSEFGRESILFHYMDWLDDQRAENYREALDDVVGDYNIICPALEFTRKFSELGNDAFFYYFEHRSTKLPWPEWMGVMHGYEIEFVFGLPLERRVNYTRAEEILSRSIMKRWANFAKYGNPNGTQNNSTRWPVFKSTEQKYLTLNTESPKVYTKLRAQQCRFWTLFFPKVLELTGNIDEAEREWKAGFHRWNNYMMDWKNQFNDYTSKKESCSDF
Urease, sequence (P07374 whole entry): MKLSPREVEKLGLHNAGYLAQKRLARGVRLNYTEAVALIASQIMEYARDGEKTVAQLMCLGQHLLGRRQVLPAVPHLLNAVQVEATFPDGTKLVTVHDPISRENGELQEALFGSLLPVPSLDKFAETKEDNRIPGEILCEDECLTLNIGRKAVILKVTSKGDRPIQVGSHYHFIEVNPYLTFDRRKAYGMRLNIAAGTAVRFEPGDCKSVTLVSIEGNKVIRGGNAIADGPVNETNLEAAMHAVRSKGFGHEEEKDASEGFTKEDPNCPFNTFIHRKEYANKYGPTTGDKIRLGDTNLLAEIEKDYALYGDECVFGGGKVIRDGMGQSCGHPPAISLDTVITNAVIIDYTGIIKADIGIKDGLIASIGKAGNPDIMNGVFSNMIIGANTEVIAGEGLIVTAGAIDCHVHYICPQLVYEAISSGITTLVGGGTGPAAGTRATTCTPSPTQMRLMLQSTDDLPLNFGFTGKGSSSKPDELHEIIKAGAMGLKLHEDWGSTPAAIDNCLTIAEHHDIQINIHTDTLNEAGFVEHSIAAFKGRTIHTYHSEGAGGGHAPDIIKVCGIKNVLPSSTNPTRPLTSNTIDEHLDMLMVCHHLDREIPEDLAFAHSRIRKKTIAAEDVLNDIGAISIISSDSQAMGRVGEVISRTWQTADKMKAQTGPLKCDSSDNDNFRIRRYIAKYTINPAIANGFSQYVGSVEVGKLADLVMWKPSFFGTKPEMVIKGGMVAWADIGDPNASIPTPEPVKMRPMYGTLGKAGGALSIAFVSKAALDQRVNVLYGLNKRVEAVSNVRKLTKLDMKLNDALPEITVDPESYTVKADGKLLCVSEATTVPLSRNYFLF

SMILES	IC50 (Urease) [µM]	inhibition [1]	inhibition [2]	inhibition (Serpentes)	Activity [3]	Activity [4]
Cc1cccc(NC(=S)Nc2ccccc2SSc2ccccc2NC(=S)Nc2cccc(C)c2)c1	3.7	inactive	inactive	inactive	Non-toxic	Non-toxic
O=[N+]([O-])c1ccc(NC(=S)Nc2ccccc2SSc2ccccc2NC(=S)Nc2ccc([N+](=O)[O-])cc2)cc1	6.4	inactive	inactive	inactive	Non-toxic	Non-toxic
S=C(Nc1cccc(Br)c1)Nc1ccccc1SSc1ccccc1NC(=S)Nc1cccc(Br)c1	10.3	inactive	inactive	inactive	Non-toxic	Non-toxic
O=[N+]([O-])c1cccc(NC(=S)Nc2ccccc2SSc2ccccc2NC(=S)Nc2cccc([N+](=O)[O-])c2)c1	12.3	inactive	inactive	inactive	Non-toxic	Non-toxic
S=C(Nc1ccccc1Br)Nc1ccccc1SSc1ccccc1NC(=S)Nc1ccccc1Br	18.6	inactive	inactive	inactive	Non-toxic	Non-toxic
S=C(Nc1ccc(Cl)c(Cl)c1)Nc1ccccc1SSc1ccccc1NC(=S)Nc1ccc(Cl)c(Cl)c1	3.2	inactive	inactive	inactive	Non-toxic	Non-toxic
S=C(Nc1ccccc1SSc1ccccc1NC(=S)NC12CC3CC(CC(C3)C1)C2)NC12CC3CC(CC(C3)C1)C2	17.6	inactive	inactive	inactive	Non-toxic	Non-toxic
Cc1ccc(NC(=S)Nc2ccccc2SSc2ccccc2NC(=S)Nc2ccc(C)cc2)cc1	1.4	inactive	inactive	inactive	Non-toxic	Non-toxic
COc1ccc(NC(=S)Nc2ccccc2SSc2ccccc2NC(=S)Nc2ccc(OC)cc2)cc1	4.2	inactive	inactive	inactive	Non-toxic	Non-toxic
Fc1ccccc1NC(=S)Nc1ccccc1SSc1ccccc1NC(=S)Nc1ccccc1F	0.7	inactive	inactive	inactive	Non-toxic	Non-toxic
NC(N)=S [THIOUREA]	19.5					
FC(F)(F)c1ccc(NC(=S)Nc2ccccc2SSc2ccccc2NC(=S)Nc2ccc(C(F)(F)F)cc2)cc1	1.5	inactive	inactive	inactive	Non-toxic	Non-toxic
S=C(Nc1ccccc1Cl)Nc1ccccc1SSc1ccccc1NC(=S)Nc1ccccc1Cl	3.4	inactive	inactive	inactive	Non-toxic	Non-toxic
Cc1ccccc1NC(=S)Nc1ccccc1SSc1ccccc1NC(=S)Nc1ccccc1C	1.1	inactive	inactive	inactive	Non-toxic	Non-toxic
Fc1ccc(NC(=S)Nc2ccccc2SSc2ccccc2NC(=S)Nc2ccc(F)cc2)cc1	0.4	inactive	inactive	inactive	Non-toxic	Non-toxic
S=C(Nc1ccc(Br)cc1)Nc1ccccc1SSc1ccccc1NC(=S)Nc1ccc(Br)cc1	4.3	inactive	inactive	inactive	Non-toxic	Non-toxic
S=C(Nc1ccc(Cl)cc1)Nc1ccccc1SSc1ccccc1NC(=S)Nc1ccc(Cl)cc1	1.6	inactive	inactive	inactive	Non-toxic	Non-toxic
Fc1cccc(NC(=S)Nc2ccccc2SSc2ccccc2NC(=S)Nc2cccc(F)c2)c1	1.5	inactive	inactive	inactive	Non-toxic	Non-toxic
S=C(Nc1ccccc1)Nc1ccccc1SSc1ccccc1NC(=S)Nc1ccccc1	15.1	inactive	inactive	inactive	Non-toxic	Non-toxic
COc1ccccc1NC(=S)Nc1ccccc1SSc1ccccc1NC(=S)Nc1ccccc1OC	1.7	inactive	inactive	inactive	Non-toxic	Non-toxic
COc1cccc(NC(=S)Nc2ccccc2SSc2ccccc2NC(=S)Nc2cccc(OC)c2)c1	14.6	inactive	inactive	inactive	Non-toxic	Non-toxic
